Laboratory results: the supplement of paper PMC10627819

Columns and labels:
[1] = test system: S. pneumoniae D39V; assay: fitness (endpoint OD595 vs no drug) (fraction); higher = more growth
Summary of the method: (§1)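 Plates with 384 wells were inoculated at OD595 0.01 using 30 µl of TSB, LB Lennox or CY, or 55 µl for S. pneumoniae. Incubation was at 37 °C, with OD595 measured every 30 min for 14 h. Fitness is the stationary-phase transition optical density over the robust mean of no-drug control wells, after first-reading background subtraction; it is capped at 1.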

[2] = test system: S. aureus Newman; assay: as above
Summary of the method: as §1

[3] = test system: S. aureus DSM 20231; assay: as above
Summary of the method: as §1

[4] = test system: S. pneumoniae D39V; assay: Bliss interaction score (quartile over a dose matrix) (fitness difference); higher = more antagonism (negative = synergy)
Summary of the method: (§2)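 Values were capped at 1 after dividing OD595 at stationary-phase entry by the plate's robust no-drug mean. This ratio is fitness, and single-drug fitness was inferred from the combination data. The Bliss score is observed minus product-expected fitness, given as quartiles over technical, biological and donor/recipient replicates.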

[5] = test system: B. subtilis 168; assay: as above
Summary of the method: as §2

[6] = test system: S. aureus Newman; assay: as above
Summary of the method: as §2

[7] = test system: S. aureus DSM 20231; assay: as above
Summary of the method: as §2
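Wherever Bliss interaction score (quartile over a dose matrix) is given: first quartile when negative (synergy) and third quartile when positive (antagonism).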

CCCCCCCCCC(=O)N[C@@H](Cc1c[nH]c2ccccc12)C(=O)N[C@H](CC(N)=O)C(=O)N[C@@H](CC(=O)O)C(=O)N[C@@H]1C(=O)NCC(=O)N[C@@H](CCCN)C(=O)N[C@@H](CC(=O)O)C(=O)N[C@H](C)C(=O)N[C@@H](CC(=O)O)C(=O)NCC(=O)N[C@H](CO)C(=O)N[C@@H]([C@H](C)CC(=O)O)C(=O)N[C@@H](CC(=O)c2ccccc2N)C(=O)O[C@@H]1C [Daptomycin] + CN[C@H](CC(C)C)C(=O)N[C@H]1C(=O)N[C@@H](CC(N)=O)C(=O)N[C@H]2C(=O)N[C@H]3C(=O)N[C@H](C(=O)N[C@H](C(=O)O)c4cc(O)cc(O)c4-c4cc3ccc4O)[C@H](O)c3ccc(c(Cl)c3)Oc3cc2cc(c3O[C@@H]2O[C@H](CO)[C@@H](O)[C@H](O)[C@H]2O[C@H]2C[C@](C)(N)[C@H](O)[C@H](C)O2)Oc2ccc(cc2Cl)[C@H]1O [Vancomycin]
Details | fitness
[1], first compound 1 µg/mL, partner 0.03125 µg/mL | 0.921
[1], first compound 1 µg/mL, partner 0.0625 µg/mL | 0.841
[1], first compound 1 µg/mL, partner 0.25 µg/mL | 0.116
[1], first compound 1 µg/mL, partner 0.5 µg/mL | 0.0905
[1], first compound 2 µg/mL, partner 0.03125 µg/mL | 0.915
[1], first compound 2 µg/mL, partner 0.0625 µg/mL | 0.885
[1], first compound 2 µg/mL, partner 0.125 µg/mL | 0.915
[1], first compound 2 µg/mL, partner 0.25 µg/mL | 0.103
[1], first compound 2 µg/mL, partner 0.5 µg/mL | 0.094
[1], first compound 4 µg/mL, partner 0.03125 µg/mL | 0.938
[1], first compound 4 µg/mL, partner 0.0625 µg/mL | 0.898
[1], first compound 4 µg/mL, partner 0.125 µg/mL | 0.904
[1], first compound 4 µg/mL, partner 0.25 µg/mL | 0.184
[1], first compound 4 µg/mL, partner 0.5 µg/mL | 0.0719
[2], first compound 0.125 µg/mL, partner 0.1875 µg/mL | ≥ 1
[2], first compound 0.125 µg/mL, partner 0.375 µg/mL | ≥ 1
[2], first compound 0.125 µg/mL, partner 0.75 µg/mL | 0.973
[2], first compound 0.25 µg/mL, partner 0.1875 µg/mL | ≥ 1
[2], first compound 0.25 µg/mL, partner 0.375 µg/mL | 0.998
[2], first compound 0.25 µg/mL, partner 0.75 µg/mL | 0.985
[2], first compound 0.5 µg/mL, partner 0.1875 µg/mL | 0.988
[2], first compound 0.5 µg/mL, partner 0.375 µg/mL | ≥ 1
[2], first compound 0.5 µg/mL, partner 0.75 µg/mL | 0.952
[3], first compound 0.5 µg/mL, partner 0.1875 µg/mL | ≥ 1
[3], first compound 0.5 µg/mL, partner 0.375 µg/mL | ≥ 1
[3], first compound 0.5 µg/mL, partner 0.75 µg/mL | ≥ 1
[3], first compound 1 µg/mL, partner 0.1875 µg/mL | ≥ 1
[3], first compound 1 µg/mL, partner 0.375 µg/mL | ≥ 1
[3], first compound 1 µg/mL, partner 0.75 µg/mL | ≥ 1
[3], first compound 2 µg/mL, partner 0.1875 µg/mL | 0.906
[3], first compound 2 µg/mL, partner 0.375 µg/mL | 0.975
[3], first compound 2 µg/mL, partner 0.75 µg/mL | 0.935

fitness, [3], one replicate
Details | partner 0.1875 µg/mL | partner 0.375 µg/mL | partner 0.75 µg/mL
first compound 0.125 µg/mL | 0.901 | ≥ 1 | ≥ 1
first compound 0.25 µg/mL | 0.853 | ≥ 1 | ≥ 1

Details | Bliss interaction score
[4] | 0.0724
[5] | 0.0914
[6] | 0.0383
[7] | 0.05

CCCCCCCCCC(=O)N[C@@H](Cc1c[nH]c2ccccc12)C(=O)N[C@H](CC(N)=O)C(=O)N[C@@H](CC(=O)O)C(=O)N[C@@H]1C(=O)NCC(=O)N[C@@H](CCCN)C(=O)N[C@@H](CC(=O)O)C(=O)N[C@H](C)C(=O)N[C@@H](CC(=O)O)C(=O)NCC(=O)N[C@H](CO)C(=O)N[C@@H]([C@H](C)CC(=O)O)C(=O)N[C@@H](CC(=O)c2ccccc2N)C(=O)O[C@@H]1C [Daptomycin] + Cn1nnc(-c2ccc(-c3ccc(N4C[C@H](CO)OC4=O)cc3F)cn2)n1 [Tedizolid]
fitness
Details | partner 0.03125 µg/mL | partner 0.0625 µg/mL | partner 0.125 µg/mL | partner 0.25 µg/mL | partner 0.5 µg/mL
[1], first compound 1 µg/mL | 0.916 | 0.942 | 0.619 | 0.23 | 0.0913
[1], first compound 2 µg/mL | 0.917 | 0.905 | 0.625 | 0.245 | 0.0924
[1], first compound 4 µg/mL | 0.93 | 0.966 | 0.643 | 0.256 | 0.0875
[2], first compound 0.125 µg/mL | – | 0.977 | 0.914 | – | –
[2], first compound 0.25 µg/mL | – | 0.97 | 0.879 | – | –
[2], first compound 0.5 µg/mL | – | 0.964 | 0.914 | – | –
[3], first compound 0.5 µg/mL | – | 0.896 | 0.832 | 0.322 | –
[3], first compound 1 µg/mL | – | 0.907 | 0.78 | 0.293 | –
[3], first compound 2 µg/mL | – | 0.896 | 0.677 | 0.389 | –

fitness, [3], one replicate
Details | partner 0.0625 µg/mL | partner 0.125 µg/mL | partner 0.25 µg/mL
first compound 0.125 µg/mL | 0.918 | 0.765 | 0.354
first compound 0.25 µg/mL | 0.894 | 0.762 | 0.375

Details | Bliss interaction score
[4] | -0.141
[5] | 0.0472
[6] | 0.0584
[7] | 0.0665
